Data as given in patent publication US9492460B2, “Carbazole compounds useful as bromodomain inhibitors” (Bristol-Myers Squibb Company, priority 2013, dated 2016).

Biological target: T1, bromodomain BRD4 (44-168), BRD4 (333-460), and BRD4 (1-477 or 44-460) (Homo sapiens, UniProt O60885)
T1 construct: BRD4(44-168), BRD4(333-460), BRD4(44-460), BRD4(1-477), O60885-1; fused on or other part: N-terminal BirA biotinylation motif, biotinylated; The TVMV-cleavable His6 tag is removed, except in some BRD4(44-460) runs detected with anti-His terbium cryptate
Test: Time Resolved Fluorescence Resonance Energy Transfer (TR-FRET) binding assay
Settings: one of the FRET assays described

Compound | IC50
Cc1noc(C)c1-c1cc(C(N)=O)c2c3cc(C(=O)N4CCC(F)C4)ccc3n(Cc3ccc(Cl)cc3)c2c1 (centres unmarked) [Example 80] | < 50 nM
Cc1noc(C)c1-c1cc(C(N)=O)c2c3cc(C(=O)N4CCC(F)C4)ccc3n(Cc3cccc(F)c3)c2c1 (centres unmarked) [Example 81] | < 50 nM
COc1ccccc1Cn1c2ccc(C(=O)N3CCC(F)C3)cc2c2c(C(N)=O)cc(-c3c(C)noc3C)cc21 (centres unmarked) [Example 82] | < 50 nM
Cc1csc(Cn2c3ccc(C(=O)N4CCC(F)C4)cc3c3c(C(N)=O)cc(-c4c(C)noc4C)cc32)n1 (centres unmarked) [Example 83] | < 50 nM
Cc1noc(C)c1-c1cc(C(N)=O)c2c3cc(C(=O)N4CCC(F)C4)ccc3n(C(C)c3ccccc3)c2c1 (centres unmarked) [Example 84] | < 50 nM
Cc1noc(C)c1-c1cc(C(N)=O)c2c3cc(C(=O)N4CC(F)C4)ccc3n(C(C)c3ccccc3)c2c1 (centres unmarked) [Example 85, 2-(3,5-dimethyl-4-isoxazolyl)-6-((3-fluoro-1-azetidinyl)carbonyl)-9-(1-phenylethyl)-9H-carbazole-4-carboxamide] | < 50 nM
Cc1noc(C)c1-c1cc(C(N)=O)c2c3cc(C(=O)N4CC(F)C4)ccc3n(C(C)c3cccc(C(F)(F)F)c3)c2c1 (centres unmarked) [Example 88] | < 50 nM
Cc1noc(C)c1-c1cc(C(N)=O)c2c3cc(C(=O)N4CC(F)C4)ccc3n(C(C)c3ccccc3C(F)(F)F)c2c1 (centres unmarked) [Example 89] | < 50 nM
Cc1noc(C)c1-c1cc(C(N)=O)c2c3cc(C(=O)N4CC(F)C4)ccc3n(CC3CCC3)c2c1 [Example 90] | < 50 nM
Cc1noc(C)c1-c1cc(C(N)=O)c2c3cc(C(=O)N4CC(F)C4)ccc3n(C(C)c3ccc(F)cc3)c2c1 (centres unmarked) [Example 91] | < 50 nM
Cc1noc(C)c1-c1cc(C(N)=O)c2c3cc(C(=O)N4CC(F)C4)ccc3n(CC3CC3)c2c1 [Example 92] | < 50 nM
Cc1noc(C)c1-c1cc(C(N)=O)c2c3cc(C(=O)N4CC(F)C4)ccc3n(C(C)c3ccc(Cl)cc3)c2c1 (centres unmarked) [Example 94, 9-(1-(4-chlorophenyl)ethyl)-2-(3,5-dimethyl-4-isoxazolyl)-6-((3-fluoro-1-azetidinyl)carbonyl)-9H-carbazole-4-carboxamide] | < 50 nM
Cc1noc(C)c1-c1cc(C(N)=O)c2c3cc(C(=O)N4CC(F)(F)C4)ccc3n(Cc3ccc(Cl)cc3)c2c1 [Example 95, 9-(4-chlorobenzyl)-6-((3,3-difluoro-1-azetidinyl)carbonyl)-2-(3,5-dimethyl-4-isoxazolyl)-9H-carbazole-4-carboxamide] | < 50 nM
CNC(=O)c1cc(-c2c(C)noc2C)cc2[nH]c3ccc(C(=O)N4CC(F)(F)C4)cc3c12 [Example 99, 6-((3,3-difluoro-1-azetidinyl)carbonyl)-2-(3,5-dimethyl-4-isoxazolyl)-N-methyl-9H-carbazole-4-carboxamide] | < 500 nM
CNC(=O)c1cc(-c2c(C)noc2C)cc2c1c1cc(C(=O)N3CC(F)(F)C3)ccc1n2Cc1ccc(Cl)cc1 [Example 100, 9-(4-chlorobenzyl)-6-(3,3-difluoroazetidine-1-carbonyl)-2-(3,5-dimethylisoxazol-4-yl)-N-methyl-9H-carbazole-4-carboxamide] | < 500 nM
CNC(=O)c1cc(-c2c(C)noc2C)cc2[nH]c3ccc(C(=O)N4CC(F)C4)cc3c12 [Example 101, 2-(3,5-dimethyl-4-isoxazolyl)-6-((3-fluoro-1-azetidinyl)carbonyl)-N-methyl-9H-carbazole-4-carboxamide] | < 500 nM
CNC(=O)c1cc(-c2c(C)noc2C)cc2c1c1cc(C(=O)N3CC(F)C3)ccc1n2C(C)c1ccc(Cl)cc1 (centres unmarked) [Example 111] | < 50 nM
CNC(=O)c1cc(-c2c(C)noc2C)cc2c1c1cc(C(=O)N3CC(F)C3)ccc1n2C(C)c1ccc(F)cc1 (centres unmarked) [Example 112] | < 500 nM
CNC(=O)c1cc(-c2c(C)noc2C)cc2c1c1cc(C(=O)N3CC(F)C3)ccc1n2C(C)c1ccccc1 (centres unmarked) [Example 113] | < 50 nM
CNC(=O)c1cc(-c2c(C)noc2C)cc2c1c1cc(C(=O)N3CC(F)C3)ccc1n2CC1CCC1 [Example 114] | < 50 nM
CNC(=O)c1cc(-c2c(C)noc2C)cc2c1c1cc(C(=O)N3C[C@@H](C)O[C@@H](C)C3)ccc1n2Cc1ccccc1 [Example 117, 9-benzyl-2-(3,5-dimethylisoxazol-4-yl)-6-(cis-2,6-dimethylmorpholine-4-carbonyl)-N-methyl-9H-carbazole-4-carboxamide] | < 50 nM
Cc1noc(C)c1-c1cc(C(=O)N(C)C)c2c3cc(C(=O)N4C[C@@H](C)O[C@@H](C)C4)ccc3n(Cc3ccccc3)c2c1 [Example 118, 9-benzyl-2-(3,5-dimethylisoxazol-4-yl)-6-(cis-2,6-dimethylmorpholine-4-carbonyl)-N,N-dimethyl-9H-carbazole-4-carboxamide] | < 500 nM
CNC(=O)c1cc(-c2c(C)noc2C)cc2c1c1cc(C(=O)N3CC(F)(F)C3)ccc1n2C(C)c1ccccc1 (centres unmarked) [Example 119, 6-((3,3-difluoro-1-azetidinyl)carbonyl)-2-(3,5-dimethyl-4-isoxazolyl)-N-methyl-9-(1-phenylethyl)-9H-carbazole-4-carboxamide] | < 50 nM
Cc1noc(C)c1-c1cc(C(=O)N(C)C)c2c3cc(C(=O)N4CC(F)(F)C4)ccc3n(C(C)c3ccccc3)c2c1 (centres unmarked) [Example 120, 6-((3,3-difluoro-1-azetidinyl)carbonyl)-2-(3,5-dimethyl-4-isoxazolyl)-N,N-dimethyl-9-(1-phenylethyl)-9H-carbazole-4-carboxamide] | < 500 nM
Cc1noc(C)c1-c1cc(C#N)c2c3cc(C(=O)N4CC(F)C4)ccc3n(Cc3cccc(F)c3)c2c1 [Example 121, 2-(3,5-dimethyl-4-isoxazolyl)-6-((3-fluoro-1-azetidinyl)carbonyl)-9-(3-fluorobenzyl)-9H-carbazole-4-carbonitrile] | < 500 nM
Cc1nocc1-c1cc(C(N)=O)c2c3cc(C(=O)N4CCOCC4)ccc3n(Cc3ccc(F)cc3)c2c1 [Example 122, 9-(4-fluorobenzyl)-2-(3-methyl-4-isoxazolyl)-6-(4-morpholinylcarbonyl)-9H-carbazole-4-carboxamide] | < 50 nM
Cc1oncc1-c1cc(C(N)=O)c2c3cc(C(=O)N4CCOCC4)ccc3n(Cc3ccc(F)cc3)c2c1 [Example 123, 9-(4-fluorobenzyl)-2-(5-methylisoxazol-4-yl)-6-(morpholine-4-carbonyl)-9H-carbazole-4-carboxamide] | < 500 nM
Cc1noc(C)c1-c1cc(C(=O)NC2CC2)c2c3cc(C(=O)N4CC(F)C4)ccc3n(Cc3ccc(F)cc3)c2c1 [Example 125, N-cyclopropyl-2-(3,5-dimethyl-4-isoxazolyl)-6-((3-fluoro-1-azetidinyl)carbonyl)-9-(4-fluorobenzyl)-9H-carbazole-4-carboxamide] | < 50 nM

Now from value to molecule:

IC50 | Compound
< 50 nM | Cc1noc(C)c1-c1cc(C(N)=O)c2c3cc(C(=O)N4CC[C@H](F)C4)ccc3n(Cc3c(F)cccc3F)c2c1 [Example 79, 9-(2,6-difluorobenzyl)-2-(3,5-dimethyl-4-isoxazolyl)-6-(((3S)-3-fluoro-1-pyrrolidinyl)carbonyl)-9H-carbazole-4-carboxamide]
< 50 nM | Cc1noc(C)c1-c1cc(C(N)=O)c2c3cc(C(=O)N4CC(F)C4)ccc3n(Cc3ccc(Cl)c(F)c3)c2c1 [Example 86]
< 50 nM | Cc1noc(C)c1-c1cc(C(N)=O)c2c3cc(C(=O)N4CC(F)C4)ccc3n(Cc3ccc(Cl)cc3F)c2c1 [Example 87]
< 50 nM | Cc1noc(C)c1-c1cc(C(N)=O)c2c3cc(C(=O)N4CC(F)C4)ccc3n(Cc3ccc(F)cc3)c2c1 [Example 93]
< 50 nM | CNC(=O)c1cc(-c2c(C)noc2C)cc2c1c1cc(C(=O)N3CC(F)C3)ccc1n2Cc1ccc(Cl)cc1 [Example 102, 9-(4-chlorobenzyl)-2-(3,5-dimethylisoxazol-4-yl)-6-(3-fluoroazetidine-1-carbonyl)-N-methyl-9H-carbazole-4-carboxamide]
< 50 nM | CNC(=O)c1cc(-c2c(C)noc2C)cc2c1c1cc(C(=O)N3CC(F)C3)ccc1n2Cc1ccc(F)cc1 [Example 103]
< 50 nM | CNC(=O)c1cc(-c2c(C)noc2C)cc2c1c1cc(C(=O)N3CC(F)C3)ccc1n2Cc1cccc(F)c1 [Example 104]
< 50 nM | CNC(=O)c1cc(-c2c(C)noc2C)cc2c1c1cc(C(=O)N3CC(F)C3)ccc1n2Cc1c(F)cccc1F [Example 105]
< 500 nM | CNC(=O)c1cc(-c2c(C)noc2C)cc2c1c1cc(C(=O)N3CC(F)C3)ccc1n2Cc1ccc(F)cc1F [Example 106]
< 50 nM | CNC(=O)c1cc(-c2c(C)noc2C)cc2c1c1cc(C(=O)N3CC(F)C3)ccc1n2Cc1cccc(F)c1F [Example 107]
< 50 nM | CNC(=O)c1cc(-c2c(C)noc2C)cc2c1c1cc(C(=O)N3CC(F)C3)ccc1n2Cc1ccc(C#N)cc1 [Example 108]
< 50 nM | CNC(=O)c1cc(-c2c(C)noc2C)cc2c1c1cc(C(=O)N3CC(F)C3)ccc1n2Cc1ccc(Cl)c(F)c1 [Example 109]
< 50 nM | CNC(=O)c1cc(-c2c(C)noc2C)cc2c1c1cc(C(=O)N3CC(F)C3)ccc1n2Cc1ccc(Cl)cc1F [Example 110]
< 50 nM | CNC(=O)c1cc(-c2c(C)noc2C)cc2c1c1cc(C(=O)N3CC(F)C3)ccc1n2CC1CC1 [Example 115]
< 50 nM | CNC(=O)c1cc(-c2c(C)noc2C)cc2c1c1cc(C(=O)N3CC(F)C3)ccc1n2Cc1ccccn1 [Example 116, 2-(3,5-dimethylisoxazol-4-yl)-6-(3-fluoroazetidine-1-carbonyl)-N-methyl-9-(pyridin-2-ylmethyl)-9H-carbazole-4-carboxamide]
< 50 nM | CCCNC(=O)c1cc(-c2c(C)noc2C)cc2c1c1cc(C(=O)N3CC(F)C3)ccc1n2Cc1ccc(F)cc1 [Example 124, 2-(3,5-dimethyl-4-isoxazolyl)-6-((3-fluoro-1-azetidinyl)carbonyl)-9-(4-fluorobenzyl)-N-propyl-9H-carbazole-4-carboxamide]
